From patent US8906825B2, “Herbicidal compositions comprising 4-amino-3-chloro-5-fluoro-6-(4-chloro-2-fluoro-3-methoxyphenyl) pyridine-2-carboxylic acid or a derivative thereof and triazolopyrimidine sulfonamides” (Dow AgroSciences LLC, priority 2012, dated 2014)

Assays:
Test in all cases: Postemergence foliar-applied herbicidal mixtures, cereal crops, greenhouse (Example III)
Format in all cases: in vivo
[1] = tested on: CIRAR (Cirsium arvense (L.) Scop., Canada thistle); conditions: visual score 0 to 100 percent after 20-22 days
Method: (§1) Seeds of the desired test plant species were planted in Sun Gro MetroMix® 306 planting mixture, which typically has a pH of 6.0 to 6.8 and an organic matter content of about 30 percent, in plastic pots with a surface area of 103.2 square centimeters (cm^2). […] The plants were grown for 7-36 days in a greenhouse with an approximate 14 hour photoperiod which was maintained at about 18° C. during the day and about 17° C. during the night. Nutrients and water were added on a regular basis and supplemental lighting was provided with overhead metal halide 1000-Watt lamps as necessary. The plants were employed for testing when they reached the second or third true leaf stage.
(§2) Treatments consisted of the benzyl ester of 4-amino-3-chloro-5-fluoro-6-(4-chloro-2-fluoro-3-methoxy-phenyl)pyridine-2-carboxylic acid (Compound A), formulated as an SC, a second cereal herbicide alone and then both in combination.
(§3) Other herbicidal components were applied on an active ingredient basis and included acetolactate synthase (ALS)-inhibiting herbicides (sulfonamide chemical class) florasulam formulated as Derby® and pyroxsulam formulated as PowerFlex®. A measured aliquot of benzyl ester of 4-amino-3-chloro-5-fluoro-6-(4-chloro-2-fluoro-3-methoxy-phenyl)pyridine-2-carboxylic acid (Compound A) was placed in 25 milliliter (mL) glass vials and diluted in a volume of 1.25% (v/v) AgriDex® crop oil concentrated to obtain a stock solution. Compound requirements are based upon a 12 mL application volume at a rate of 187 liters per hectare (L/ha). […] Formulated compounds were applied to the plant material with an overhead Mandel track sprayer equipped with an 8002E nozzle calibrated to deliver 187 L/ha over an application area of 0.503 square meters (m^2) at a spray height of 18 inches (46 cm) above average plant canopy. Control plants were sprayed in the same manner with the solvent blank.
(§4) The treated plants and control plants were placed in a greenhouse as described above and watered by sub-irrigation to prevent wash-off of the test compounds. After 20-22 days, the condition of the test plants as compared with that of the control plants was determined visually and scored on a scale of 0 to 100 percent where 0 corresponds to no injury and 100 corresponds to complete kill.
(§5) Colby's equation was used to determine the herbicidal effects expected from the mixtures (Colby, S. R. 1967. Calculation of the synergistic and antagonistic response of herbicide combinations. Weeds 15:20-22.).
(§6) The following equation was used to calculate the expected activity of mixtures containing two active ingredients, A and B: Expected=A+B−(A×B/100)

[2] = tested on: SASKR (Salsola iberica (L.), Russian thistle); conditions: Florasulam 3.75 gai/ha, visual score 0 to 100 percent after 20-22 days
Method: as §1, §2, §3, §4, §5, §6

[3] = tested on: LAMPU (Lamium purpureum (L.), purple deadnettle); conditions: Florasulam 1.25 gai/ha, visual score 0 to 100 percent after 20-22 days
Method: as §1, §2, §3, §4, §5, §6

[4] = tested on: MATCH (Chamomilla chamomilla (L.) Rydb., scented mayweed); conditions: Florasulam 3.75 gai/ha, visual score 0 to 100 percent after 20-22 days
Method: as §1, §2, §3, §4, §5, §6

[5] = tested on: VERPE (Veronica persica Poir., bird's-eye speedwell); conditions: visual score 0 to 100 percent after 20-22 days
Method: as §1, §2, §3, §4, §5, §6

[6] = tested on: VIOTR (Viola tricolor (L.), wild pansy); conditions: Florasulam 3.75 gai/ha, visual score 0 to 100 percent after 20-22 days
Method: as §1, §2, §3, §4, §5, §6

Compound: COc1ncc(F)c2nc(S(=O)(=O)Nc3c(F)cccc3F)nn12 [Florasulam, N-(2,6-difluorophenyl)-8-fluoro-5-methoxy[1,2,4]triazolo[1,5-c]pyrimidine-2-sulfonamide, reference compound]
- CIRAR Obs ([1]; Florasulam 1.25 gai/ha): 55%
- CIRAR Obs ([1]; Florasulam 3.75 gai/ha): 40%
- SASKR Obs [2]: 30%
- LAMPU Obs [3]: 10%
- MATCH Obs [4]: 65%
- VERPE Obs ([5]; Florasulam 1.25 gai/ha): 10%
- VERPE Obs ([5]; Florasulam 3.75 gai/ha): 10%
- VIOTR Obs [6]: 65%
